Holding throughout (assay): biochemical
For one assay, the target named is CIT (Homo sapiens, UniProt O14578). On the set-up: Reaction Biology HotSpot radiometric 33P-ATP catalytic assay at Km ATP; percent inhibition versus DMSO, mean n=2. As to conditions: Km ATP. An excerpt: (§1) Unreacted phosphate is removed via washing the filters.
The target in a further assay is CSNK2A1 (Homo sapiens, UniProt P68400). Also on record: Reaction Biology HotSpot radiometric 33P-ATP catalytic assay at Km ATP; percent inhibition versus DMSO, mean n=2. The following applies: Km ATP.
Description: as §1

Another assay deals with CSNK2A2 (Homo sapiens, UniProt P19784). On the set-up: Reaction Biology HotSpot radiometric 33P-ATP catalytic assay at Km ATP; percent inhibition versus DMSO, mean n=2. As to conditions: Km ATP.
Chain of CSNK2A2 (P19784 whole entry): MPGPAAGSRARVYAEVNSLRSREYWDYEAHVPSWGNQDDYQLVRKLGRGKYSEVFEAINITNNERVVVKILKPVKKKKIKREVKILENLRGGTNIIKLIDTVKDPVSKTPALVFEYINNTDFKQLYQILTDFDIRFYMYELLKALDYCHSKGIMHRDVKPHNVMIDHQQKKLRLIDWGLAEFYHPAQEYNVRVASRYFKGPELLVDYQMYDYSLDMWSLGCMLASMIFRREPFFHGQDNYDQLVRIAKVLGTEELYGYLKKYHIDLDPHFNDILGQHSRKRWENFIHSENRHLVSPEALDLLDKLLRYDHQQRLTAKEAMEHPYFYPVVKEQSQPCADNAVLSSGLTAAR
Description: as §1

Another assay has as its target HIPK2 (Homo sapiens, UniProt Q9H2X6). On the set-up: Reaction Biology HotSpot radiometric 33P-ATP catalytic assay at Km ATP; percent inhibition versus DMSO, mean n=2. The following applies: Km ATP.
Description: as §1

For the next assay, the target named is HIPK3 (Homo sapiens, UniProt Q9H422). Also on record: Reaction Biology HotSpot radiometric 33P-ATP catalytic assay at Km ATP; percent inhibition versus DMSO, mean n=2. As to conditions: Km ATP.
Description: as §1

For a further assay, the target named is T1, PRKCE (Homo sapiens, UniProt Q02156).
T1 sequence (Q02156 1-737): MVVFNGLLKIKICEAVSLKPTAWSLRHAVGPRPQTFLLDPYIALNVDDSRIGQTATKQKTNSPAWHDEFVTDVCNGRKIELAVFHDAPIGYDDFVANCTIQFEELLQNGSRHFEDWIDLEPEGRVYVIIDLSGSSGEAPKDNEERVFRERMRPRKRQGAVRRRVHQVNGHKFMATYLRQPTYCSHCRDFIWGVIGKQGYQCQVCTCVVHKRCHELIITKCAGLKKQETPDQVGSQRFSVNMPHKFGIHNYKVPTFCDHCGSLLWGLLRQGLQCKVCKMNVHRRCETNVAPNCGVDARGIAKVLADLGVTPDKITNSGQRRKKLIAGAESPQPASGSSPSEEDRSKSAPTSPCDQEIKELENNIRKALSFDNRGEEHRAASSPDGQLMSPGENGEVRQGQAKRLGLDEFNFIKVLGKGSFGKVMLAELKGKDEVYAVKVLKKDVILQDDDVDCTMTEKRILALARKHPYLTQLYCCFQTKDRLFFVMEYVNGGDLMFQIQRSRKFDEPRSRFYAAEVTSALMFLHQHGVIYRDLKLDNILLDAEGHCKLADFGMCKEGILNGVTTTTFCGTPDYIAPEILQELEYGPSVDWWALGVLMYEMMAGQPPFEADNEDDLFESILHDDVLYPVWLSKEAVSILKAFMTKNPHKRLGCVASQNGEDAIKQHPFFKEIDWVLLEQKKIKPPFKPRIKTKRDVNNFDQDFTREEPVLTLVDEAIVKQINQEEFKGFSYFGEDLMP
On the set-up: DiscoveRx KINOMEscan active site-directed competition binding; percent of control kinase bound to immobilised ligand.

In the next assay the target is DYRK1B (Homo sapiens, UniProt Q9Y463). On the set-up: DiscoveRx KINOMEscan active site-directed competition binding; percent of control kinase bound to immobilised ligand. As to conditions: for remaining binding at 10 µM: binding competition, % of control. On the procedure: (§2) The DiscoveRx KinomeScan platform (https://www.discoverx.com), utilizing an in vitro active site-directed competition binding assay, was used to quantitatively measure interactions between the four clinical PARP inhibitors and their largest available kinase panel. At the time when the assays were performed (date: 29/11/2016), 468 in vitro binding assays were available, corresponding to 392 unique human kinases (76% of the human kinome)[39] (Supplementary Table 5). To follow up the computational analysis, we performed a comprehensive in vitro kinome screen. To do this we employed the DiscoveRx (https://www.discoverx.com) KinomeScan in vitro binding technology[37],[38] that has been widely used for kinome profiling in drug discovery. At the time of conducting our screen, this kinome panel was the largest commercially available and comprised 468 in vitro binding assays corresponding to 392 unique human kinases (76% of the human kinome)[39] (Supplementary Table 5). Also included were assays comprising mutated, deleted, phosphorylated or autoinhibited forms of proteins (n = 63), secondary or pseudokinase domains (n = 8), non-human isoforms (n = 3) and CDK complexes with different cyclins (n = 2) (Supplementary Table 5). The assays were performed at a single relatively high concentration of 10 μM to identify initially both low and high potency off-targets. The results of our use of the in vitro binding assay for kinome profiling reveal marked differences between the kinase polypharmacology of PARP inhibitors. […] The binding technology used involves a competition assay, defining activity as ≥65% of the kinase being competed off an immobilised ligand at 10 μM[38].
Chain of DYRK1B (Q9Y463 whole entry): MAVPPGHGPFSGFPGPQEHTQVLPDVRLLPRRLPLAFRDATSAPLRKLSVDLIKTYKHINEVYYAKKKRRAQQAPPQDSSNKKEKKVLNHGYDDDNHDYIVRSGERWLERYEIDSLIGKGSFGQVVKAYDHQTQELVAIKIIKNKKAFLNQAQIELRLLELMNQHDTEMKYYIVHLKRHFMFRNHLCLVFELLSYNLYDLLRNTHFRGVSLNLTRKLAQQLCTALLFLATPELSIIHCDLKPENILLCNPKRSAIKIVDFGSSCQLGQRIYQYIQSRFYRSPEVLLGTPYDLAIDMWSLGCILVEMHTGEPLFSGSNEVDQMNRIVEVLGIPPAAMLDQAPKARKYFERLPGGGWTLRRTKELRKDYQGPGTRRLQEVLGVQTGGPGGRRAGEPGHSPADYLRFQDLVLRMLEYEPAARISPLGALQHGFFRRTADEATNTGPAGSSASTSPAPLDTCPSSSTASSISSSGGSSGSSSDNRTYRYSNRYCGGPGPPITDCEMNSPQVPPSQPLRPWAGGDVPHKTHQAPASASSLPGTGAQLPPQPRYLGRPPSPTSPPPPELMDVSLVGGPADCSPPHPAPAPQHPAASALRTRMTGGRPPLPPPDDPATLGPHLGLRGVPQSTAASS

The next assay has as its target LTK (Homo sapiens, UniProt P29376). Also on record: DiscoveRx KINOMEscan active site-directed competition binding; percent of control kinase bound to immobilised ligand. The following applies: for remaining binding at 10 µM: binding competition, % of control. On the procedure:
as §2

For a further assay, the target named is STK33 (Homo sapiens, UniProt Q9BYT3). On the set-up: DiscoveRx KINOMEscan active site-directed competition binding; percent of control kinase bound to immobilised ligand. The following applies: for remaining binding at 10 µM: binding competition, % of control. On the procedure:
as §2

In a further assay the target is CDK4-cyclinD3 (Homo sapiens, UniProt P11802). Also on record: cyclinD3; DiscoveRx KINOMEscan active site-directed competition binding; percent of control kinase bound to immobilised ligand.
Chain of CDK4-cyclinD3 (P11802 whole entry): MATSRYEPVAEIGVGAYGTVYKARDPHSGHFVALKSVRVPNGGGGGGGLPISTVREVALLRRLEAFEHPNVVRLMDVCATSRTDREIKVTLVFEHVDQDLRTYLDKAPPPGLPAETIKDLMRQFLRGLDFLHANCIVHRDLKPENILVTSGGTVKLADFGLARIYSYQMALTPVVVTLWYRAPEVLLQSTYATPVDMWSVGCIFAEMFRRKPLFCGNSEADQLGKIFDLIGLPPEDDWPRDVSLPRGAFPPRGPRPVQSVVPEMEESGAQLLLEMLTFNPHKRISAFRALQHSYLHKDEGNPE
Chain of CDK4-cyclinD3 (P30281 whole entry partner): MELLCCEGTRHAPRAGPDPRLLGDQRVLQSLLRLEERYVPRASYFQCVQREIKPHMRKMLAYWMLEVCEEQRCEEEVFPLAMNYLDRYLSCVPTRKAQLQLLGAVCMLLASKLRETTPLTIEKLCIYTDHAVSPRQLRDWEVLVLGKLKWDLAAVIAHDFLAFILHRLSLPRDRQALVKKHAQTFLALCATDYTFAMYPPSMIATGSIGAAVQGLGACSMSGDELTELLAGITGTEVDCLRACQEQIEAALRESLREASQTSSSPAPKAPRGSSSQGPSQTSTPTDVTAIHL
Setting [1] is: read-out: Rucaparib / %Ctrl @ 10000nM, binding competition, % of control.
Where [2] appears, read: read-out: Rucaparib / %Ctrl @ 10000nM, binding competition.
The mark [3] stands for this setting: read-out: Talazoparib (BMN 673) / %Ctrl @ 10000nM.
The mark [4] stands for this setting: read-out: Niraparib (MK-4827) / %Ctrl @ 10000nM.
Where [5] appears, read: read-out: Niraparib (MK-4827) / %Ctrl @ 10000nM, binding competition.
Where [6] appears, read: read-out: Olaparib / %Ctrl @ 10000nM.

Where two headings read alike, the source gives them in different places.

Chain of STK33 (Q9BYT3 whole entry): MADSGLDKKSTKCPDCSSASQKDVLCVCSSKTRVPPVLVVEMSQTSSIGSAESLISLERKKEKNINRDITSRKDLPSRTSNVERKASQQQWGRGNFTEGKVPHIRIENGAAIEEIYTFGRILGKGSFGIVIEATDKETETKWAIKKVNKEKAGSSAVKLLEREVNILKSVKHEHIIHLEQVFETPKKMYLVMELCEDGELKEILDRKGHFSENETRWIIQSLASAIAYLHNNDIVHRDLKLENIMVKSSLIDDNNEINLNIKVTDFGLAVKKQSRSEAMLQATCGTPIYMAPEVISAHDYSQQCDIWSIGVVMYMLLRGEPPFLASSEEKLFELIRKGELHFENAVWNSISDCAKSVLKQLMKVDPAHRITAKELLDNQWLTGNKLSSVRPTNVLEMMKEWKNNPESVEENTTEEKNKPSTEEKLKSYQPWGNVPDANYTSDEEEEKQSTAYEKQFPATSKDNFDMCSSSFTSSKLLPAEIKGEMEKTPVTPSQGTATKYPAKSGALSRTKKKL
Chain of LTK (P29376 whole entry): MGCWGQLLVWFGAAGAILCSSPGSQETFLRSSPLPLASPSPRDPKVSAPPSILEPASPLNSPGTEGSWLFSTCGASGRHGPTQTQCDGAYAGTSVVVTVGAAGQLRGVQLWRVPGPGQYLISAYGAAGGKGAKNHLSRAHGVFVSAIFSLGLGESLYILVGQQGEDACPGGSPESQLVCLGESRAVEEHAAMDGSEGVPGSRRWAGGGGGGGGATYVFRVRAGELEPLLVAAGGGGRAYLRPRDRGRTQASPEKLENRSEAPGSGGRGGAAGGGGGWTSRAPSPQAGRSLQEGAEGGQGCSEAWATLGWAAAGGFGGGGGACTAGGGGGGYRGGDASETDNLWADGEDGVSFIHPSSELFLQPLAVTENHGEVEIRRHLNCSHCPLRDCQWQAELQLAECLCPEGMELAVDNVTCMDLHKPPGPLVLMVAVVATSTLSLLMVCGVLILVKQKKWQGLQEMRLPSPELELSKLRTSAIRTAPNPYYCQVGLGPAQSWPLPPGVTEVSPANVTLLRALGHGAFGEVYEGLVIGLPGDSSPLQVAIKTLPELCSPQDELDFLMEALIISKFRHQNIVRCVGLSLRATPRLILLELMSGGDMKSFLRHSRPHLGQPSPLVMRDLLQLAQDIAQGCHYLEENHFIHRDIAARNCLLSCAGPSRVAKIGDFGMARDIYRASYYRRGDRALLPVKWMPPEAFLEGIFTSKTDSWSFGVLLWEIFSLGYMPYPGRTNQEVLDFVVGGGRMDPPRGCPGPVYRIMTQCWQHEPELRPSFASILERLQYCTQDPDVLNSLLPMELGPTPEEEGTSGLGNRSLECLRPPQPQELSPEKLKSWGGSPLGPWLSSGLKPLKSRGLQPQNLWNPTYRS
Chain of CIT (O14578 whole entry): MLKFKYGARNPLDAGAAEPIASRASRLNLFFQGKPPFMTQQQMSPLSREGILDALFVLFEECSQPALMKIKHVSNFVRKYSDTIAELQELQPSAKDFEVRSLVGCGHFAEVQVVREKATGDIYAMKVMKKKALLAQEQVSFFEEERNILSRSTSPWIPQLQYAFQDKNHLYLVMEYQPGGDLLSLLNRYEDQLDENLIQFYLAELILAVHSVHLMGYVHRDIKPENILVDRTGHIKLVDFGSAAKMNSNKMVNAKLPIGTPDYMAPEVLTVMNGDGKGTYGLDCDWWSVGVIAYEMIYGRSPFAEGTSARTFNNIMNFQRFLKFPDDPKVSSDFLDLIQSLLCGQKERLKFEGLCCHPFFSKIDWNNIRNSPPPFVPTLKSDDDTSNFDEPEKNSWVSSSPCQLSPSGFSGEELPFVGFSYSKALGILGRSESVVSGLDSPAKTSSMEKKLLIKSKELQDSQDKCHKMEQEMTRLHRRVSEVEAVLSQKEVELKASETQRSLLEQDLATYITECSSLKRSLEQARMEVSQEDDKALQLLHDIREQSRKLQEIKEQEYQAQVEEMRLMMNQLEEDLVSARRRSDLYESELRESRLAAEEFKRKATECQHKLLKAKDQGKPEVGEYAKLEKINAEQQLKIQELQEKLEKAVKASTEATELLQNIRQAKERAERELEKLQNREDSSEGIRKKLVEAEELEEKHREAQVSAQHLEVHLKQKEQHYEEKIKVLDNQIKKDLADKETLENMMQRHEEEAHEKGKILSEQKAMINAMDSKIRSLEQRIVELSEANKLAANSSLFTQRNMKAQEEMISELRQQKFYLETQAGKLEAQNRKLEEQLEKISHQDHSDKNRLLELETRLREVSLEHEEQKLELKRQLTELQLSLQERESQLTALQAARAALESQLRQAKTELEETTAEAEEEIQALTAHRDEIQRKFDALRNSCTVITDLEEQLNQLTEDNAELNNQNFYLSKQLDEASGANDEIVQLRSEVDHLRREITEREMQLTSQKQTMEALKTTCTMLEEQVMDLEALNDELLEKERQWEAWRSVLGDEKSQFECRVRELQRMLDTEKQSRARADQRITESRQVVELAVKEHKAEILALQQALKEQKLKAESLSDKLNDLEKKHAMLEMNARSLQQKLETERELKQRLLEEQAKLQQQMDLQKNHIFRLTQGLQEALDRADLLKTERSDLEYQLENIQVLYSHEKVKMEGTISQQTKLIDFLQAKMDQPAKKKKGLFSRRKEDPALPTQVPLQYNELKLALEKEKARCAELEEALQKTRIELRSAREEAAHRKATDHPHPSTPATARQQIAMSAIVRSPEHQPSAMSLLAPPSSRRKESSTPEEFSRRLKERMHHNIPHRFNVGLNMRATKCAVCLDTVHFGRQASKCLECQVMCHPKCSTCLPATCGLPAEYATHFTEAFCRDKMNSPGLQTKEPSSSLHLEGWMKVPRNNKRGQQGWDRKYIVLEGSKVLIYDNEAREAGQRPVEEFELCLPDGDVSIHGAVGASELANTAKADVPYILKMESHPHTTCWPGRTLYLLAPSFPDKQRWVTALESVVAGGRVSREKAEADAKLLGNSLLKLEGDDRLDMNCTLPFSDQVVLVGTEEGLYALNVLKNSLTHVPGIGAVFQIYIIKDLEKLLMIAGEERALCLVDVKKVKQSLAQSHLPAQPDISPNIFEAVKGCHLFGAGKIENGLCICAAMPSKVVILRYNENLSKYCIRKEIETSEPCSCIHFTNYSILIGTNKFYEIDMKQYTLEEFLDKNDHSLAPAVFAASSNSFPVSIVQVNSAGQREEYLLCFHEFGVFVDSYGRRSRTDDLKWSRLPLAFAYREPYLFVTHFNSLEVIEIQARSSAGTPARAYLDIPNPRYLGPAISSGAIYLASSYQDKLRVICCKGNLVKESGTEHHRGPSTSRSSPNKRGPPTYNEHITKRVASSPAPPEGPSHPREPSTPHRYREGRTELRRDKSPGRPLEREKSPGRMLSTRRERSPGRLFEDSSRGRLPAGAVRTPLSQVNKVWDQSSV

Take `CNCc1ccc(-c2[nH]c3cc(F)cc4c3c2CCNC4=O)cc1` [Rucaparib]: the inhibition at 1 µM against CIT was 15%; on CSNK2A1, 21%; on CSNK2A2 it was 17%; against HIPK2, -6%; against HIPK3, -12%. Moreover, the percent of control binding at 10 µM at PRKCE (setting [1]) turned out to be 74%; at CDK4-cyclinD3 (setting [1]), 12%. The percent of control kinase binding at 10 µM stood at 5.7% on DYRK1B (setting [2]), 89% on LTK (setting [2]) and 89% on STK33 (setting [2]).

As to `Cn1ncnc1[C@H]1c2n[nH]c(=O)c3cc(F)cc(c23)N[C@@H]1c1ccc(F)cc1` [Talazoparib], the percent of control binding at 10 µM at PRKCE (setting [3]) amounted to 93%; at CDK4-cyclinD3 (setting [3]) it was 99%. Besides, the remaining binding at 10 µM at DYRK1B (setting [3]) worked out at 95%; at LTK (setting [3]) it was 91%; on STK33 (setting [3]), 99%.

On to `NC(=O)c1cccc2cn(-c3ccc([C@@H]4CCCNC4)cc3)nc12` [Niraparib], for which the inhibition at 1 µM on CIT was 10%; against CSNK2A1, 12%; on CSNK2A2, -1%; against HIPK2, 23%; on HIPK3 it was 5%. Also, the percent of control binding at 10 µM was 100% on PRKCE (setting [4]) and 38% at CDK4-cyclinD3 (setting [4]). Besides, the values for the percent of control kinase binding at 10 µM at DYRK1B (setting [5]) and at LTK (setting [5]) were 0% and 71%, respectively.

Consider `O=C(c1cc(Cc2n[nH]c(=O)c3ccccc23)ccc1F)N1CCN(C(=O)C2CC2)CC1` [Olaparib], for which the percent of control binding at 10 µM on PRKCE (setting [6]) was 93%; at CDK4-cyclinD3 (setting [6]) it was 95%. The remaining binding at 10 µM amounted to 97% on DYRK1B (setting [6]), 93% on LTK (setting [6]) and 100% at STK33 (setting [6]).

The record behind these values is article PMC7026418, “The kinase polypharmacology landscape of clinical PARP inhibitors” (Scientific Reports, 2020).
